Legend:
[1] = Chemical reductant assay: DTT challenge (cell-free); type: physicochemical; conditions: aq. TE buffer pH 7.4, 37° C., 6 h
Text: This assay (see FIG. 1) examined the stability of disulfide-based reduction-triggered compounds of the invention when exposed to monothiol reductants, primarily the major physiological cellular monothiol GSH, and dithiol reductants like the disulfide reductant dithiothreitol (DTT), as evaluated in a cell-free assay, to determine whether these compounds can be useful for selective release.
Assay Conditions: A black 96-well plate with black bottom was charged with solutions of fluorophore-releasing reduction-triggered probes that are compounds of the invention (P1, P2, P3, P4 and P5) or that are not compounds of the invention and reveal the performance of prior art systems (X19) (80 μL; 25 μM in aq. TE buffer (pH 7.4) and 1.25% vol DMSO). Solutions of challenge species chosen from the monothiol glutathione (GSH, 0.1-50 mM) and the dithiol reductant dithiothreitol (DTT, 0.1-50 mM) or phosphine reductant tris-(2-carboxyethyl) phosphine (TCEP); (20 μL; 1 mM in aq. TE buffer (pH 7.4) were added and the reaction mixtures were incubated at 37° C. for 6 h while measuring fluorescence intensity over time [F(t)] using a BMG Labtech FLUOstar Omega platereader (λexc=355 nm, Δem=530 nm for PQ-OH-releasing probes X19, P1 and P2; Δexc=485 nm, Δem=530 nm for MF-OH-releasing probes P3 and P4.
Data Representation: F^max is the maximum possible fluorescence increase corresponding to complete reduction-triggered cargo release, i.e. the fluorescence intensity increase from time zero to signal plateau under TCEP incubation PQ-OH-releasing probes. F(t)/F^max(t) thus gives the timecourse measurements of fluorescence intensity, as a fraction of the maximum possible fluorescence signal. F^sat is the endpoint fluorescence intensity increase for each condition, ie. F^sat=(F(6 h)). F^sat/F^max thus gives the assay endpoint fluorescence intensity increase, as a fraction of the maximum possible fluorescence signal. In the GSH timecourse measurements shown in FIG. 1, all datasets annotated with concentrations only (0.01-10 mM) refer to GSH challenges, while datasets for TCEP positive control (100 μM) and no-reductant control (blank) are shown for comparison. The dose-response plots show F^sat/F^max for the different ratios between probe and GSH or probe and DTT concentrations, with a logarithmic horizontal scale.

[2] = target: thioredoxin reductase 2 (TrxR2) (Homo sapiens, UniProt Q9NNW7); assay: Enzymatic activation assay: NADPH/TrxR2 without Trx; type: biochemical; conditions: NADPH/TrxR2, no Trx added, 37° C., 6 h
Text: (§1) This assay (see FIG. 2) examined the resistance of disulfide-based reduction-triggered compounds to the major cellular enzymatic systems that maintain redox homeostasis and are capable of reducing disulfides, evaluated in a cell-free assay, to see if these compounds can be useful for selective enzyme-triggered release.
(§2) Assay conditions: A black 96-well plate with black bottom was charged with solutions of fluorophore-releasing reduction-triggered probes that are compounds of the invention (P1, P2) or that are not compounds of the invention and reveal the performance of prior art systems (X19) (50 μL; 40 μM in aq. TE buffer (pH 7.4) and 4 μL DMSO). […]
(§3) Data Representation: (F(t)-F^NADPH(t)) is the fluorescence intensity of the test solution at time t, from which is subtracted a background fluorescence level also at time t from a solution with NADPH (which itself is fluorescent, and is present in 10-fold higher concentration than the probe) and with the same protein mixture but without the probe. F^max(t) is the maximum possible fluorescence intensity value at time t, determined by incubation with TCEP (100 μM)) similarly as for the chemical reductant assay. (F(t)−F^NADPH(t))/F^max(t) thus gives the timecourse of fluorescence signal, as a fraction of the maximum possible fluorescence signal. […]

[3] = target: T1, thioredoxin 2 (Trx2) (Homo sapiens, UniProt Q99757); assay: Enzymatic activation assay: NADPH/TrxR/Trx2 system; type: biochemical; conditions: NADPH/TrxR plus Trx2, 37° C., 6 h
T1 sequence (Q99757 60-166): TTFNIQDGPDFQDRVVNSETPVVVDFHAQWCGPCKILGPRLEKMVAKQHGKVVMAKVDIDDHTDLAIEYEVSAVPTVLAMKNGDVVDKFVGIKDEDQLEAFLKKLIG
Text: as §1, §2, §3

[4] = target: T2, glutathione reductase (GR) (Homo sapiens, UniProt P00390); assay: Enzymatic activation assay: GR; type: biochemical; conditions: NADPH/GR
T2 sequence (P00390 44-522): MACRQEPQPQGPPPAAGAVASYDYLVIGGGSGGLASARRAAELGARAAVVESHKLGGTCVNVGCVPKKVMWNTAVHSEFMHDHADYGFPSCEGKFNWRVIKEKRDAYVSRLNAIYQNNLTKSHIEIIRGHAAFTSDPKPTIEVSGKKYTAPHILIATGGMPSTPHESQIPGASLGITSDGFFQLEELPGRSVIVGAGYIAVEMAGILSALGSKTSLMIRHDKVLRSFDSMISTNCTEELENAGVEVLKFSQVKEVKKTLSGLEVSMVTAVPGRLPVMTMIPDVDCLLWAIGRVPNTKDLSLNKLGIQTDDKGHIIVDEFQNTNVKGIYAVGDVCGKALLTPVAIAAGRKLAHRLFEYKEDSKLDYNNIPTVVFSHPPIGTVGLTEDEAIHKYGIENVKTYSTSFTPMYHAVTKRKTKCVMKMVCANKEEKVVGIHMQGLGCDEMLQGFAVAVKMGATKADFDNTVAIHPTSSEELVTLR
Text: as §1, §2, §3

[5] = target: T3, GR/GSH/Grx (glutaredoxin 2, Grx2) (Homo sapiens, UniProt Q9NS18); assay: Enzymatic activation assay: GR/GSH/Grx2; type: biochemical; conditions: full mixture NADPH/GR/GSH/Grx2
T3 sequence (Q9NS18 20-164): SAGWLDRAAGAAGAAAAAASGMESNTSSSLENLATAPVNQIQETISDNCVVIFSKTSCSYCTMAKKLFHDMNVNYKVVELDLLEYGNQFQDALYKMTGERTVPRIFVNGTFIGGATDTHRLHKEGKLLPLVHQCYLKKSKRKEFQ
Text: as §1, §2, §3

thioredoxin reductase 2 (TrxR2), sequence (Q9NNW7 37-524): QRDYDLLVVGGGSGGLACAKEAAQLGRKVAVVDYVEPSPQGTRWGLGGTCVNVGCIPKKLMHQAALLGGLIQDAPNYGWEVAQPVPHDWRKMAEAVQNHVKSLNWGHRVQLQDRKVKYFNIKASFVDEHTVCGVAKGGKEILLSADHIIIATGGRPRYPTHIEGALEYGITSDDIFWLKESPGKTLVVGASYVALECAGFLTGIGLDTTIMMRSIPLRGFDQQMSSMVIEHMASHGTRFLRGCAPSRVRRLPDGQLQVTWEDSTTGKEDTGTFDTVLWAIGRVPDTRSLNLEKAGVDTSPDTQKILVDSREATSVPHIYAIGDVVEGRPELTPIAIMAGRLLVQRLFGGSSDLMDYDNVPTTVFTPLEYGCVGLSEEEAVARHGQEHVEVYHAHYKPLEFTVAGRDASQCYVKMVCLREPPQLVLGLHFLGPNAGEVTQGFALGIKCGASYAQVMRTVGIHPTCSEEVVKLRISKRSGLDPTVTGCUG

## O=C(Oc1ccc(Cl)cc1-c1nc2ccc(Cl)cc2c(=O)[nH]1)N1CCC[C@@H]2CSSC[C@H]21 (racemic) [Compound P1, 4-chloro-2-(6-chloro-4-oxo-3,4-dihydroquinazolin-2-yl)phenyl-(trans)-hexahydro-[1,2]dithiino[4,5-b]pyridine-1(2H)-carboxylate]
[1]
  activation / cargo release by dithiol reductant DTT: efficiently activated by dithiol-type reductants
[2]
  cargo release / processing by TrxR2: not processed
[3]
  cargo release / processing by TrxR plus Trx2: processed when additional high levels of Trx1 and Trx2 are added
[4]
  cargo release / processing by oxidoreductase GR: resist
[5]
  cargo release / processing by GR/GSH/Grx2: only processed by high levels of Grx1 and Grx2

## O=C(Oc1ccc(Cl)cc1-c1nc2ccc(Cl)cc2c(=O)[nH]1)N1CCC[C@@H]2CSSC[C@@H]21 (racemic) [Compound P2, 4-chloro-2-(6-chloro-4-oxo-3,4-dihydroquinazolin-2-yl)phenyl-(cis)-hexahydro-[1,2]dithiino[4,5-b]pyridine-1(2H)-carboxylate]
[1]
  activation / cargo release by dithiol reductant DTT: efficiently activated by dithiol-type reductants
[2]
  cargo release / processing by TrxR2: not processed
[3]
  cargo release / processing by TrxR plus Trx2: processed when additional high levels of Trx1 and Trx2 are added
[4]
  cargo release / processing by oxidoreductase GR: resist
[5]
  cargo release / processing by GR/GSH/Grx2: only processed by high levels of Grx1 and Grx2

— US20240207414A1, “DISULFIDE-BASED PRODRUG COMPOUND” (Ludwig-Maximilians-Universitat Munchen, priority 2021, published 2024)
